Experimental data from patent publication US5569742A (The Salk Institute for Biological Studies, priority 1994, dated 1996).
Positions of bridges follow the written chain, without caps; N, C: chain ends. Residues, ends and D or L forms follow the SMILES beside them.

Legend:
NPY Y1 receptor = molecular target: T1, NPY Y1 receptor (Homo sapiens, UniProt P25929); assay: Receptor binding assay, displacement of [125I]PYY from SK-N-MC cells
T1 construct: The human SK-N-MC cell line expresses the Y1 receptor subtype; endogenous in cells; host or cells: SK-N-MC human neuroblastoma cells (intact, plated cells)
T1 sequence (P25929 1-384): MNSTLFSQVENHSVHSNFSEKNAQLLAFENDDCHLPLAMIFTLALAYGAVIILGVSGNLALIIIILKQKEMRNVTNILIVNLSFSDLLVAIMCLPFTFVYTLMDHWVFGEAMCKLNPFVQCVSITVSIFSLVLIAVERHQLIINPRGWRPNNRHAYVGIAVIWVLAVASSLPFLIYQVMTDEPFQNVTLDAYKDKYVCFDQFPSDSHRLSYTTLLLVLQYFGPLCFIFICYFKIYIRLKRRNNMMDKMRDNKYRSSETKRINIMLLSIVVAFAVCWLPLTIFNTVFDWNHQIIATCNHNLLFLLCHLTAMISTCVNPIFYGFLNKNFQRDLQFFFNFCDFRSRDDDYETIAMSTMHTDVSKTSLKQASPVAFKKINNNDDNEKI
Protocol: (§1) Receptor binding assays are performed using the human neuroblastoma SK-N-MC cells Y1 receptors) and the SK-N-BE(2) cells (Y2 receptors). Cells are grown to confluence in […], trypsinized, and plated into 24 microwells plates (10^5 cells per well). Media for SK-N-MC cells is MEM Eagles (500 mL) buffer, containing L-glutamine (10 Ml, 200 mM, penicillin/streptomycin (5 Ml.10 000 mg/mL), nonessential amino acids (5 mL, 11 mg/mL), fetal calf serum (50 mL, 10%), and 500 μL of fungiyorl. Media for SK-N-BE(2) cells is DME-F12 (500 mL) buffer, containing L-glutamine (10 mL, 200 mM), penicillin/streptomycin (5 mL, 10 000 mg/mL), fetal calf serum (50 mL, 10%), and 500 μL of fungiyorl. After 1 day for the SK-N-BE(2) and 2 days for the SK-N-MC, the cells are grown to the appropriate density and are used for binding assays
(§2) Peptides to be tested are prealiquoted at 100 μg/Ml in 100 μL of solution in MILLI-Q™ water (Millipore, U.S.A.). Solutions of peptides in different concentrations (seven doses from 10^-6 to 10^-10 M) are prepared in binding buffer (0.30M sucrose, 10 mM HEPES, 0.1% BSA, and pH is adjusted to 7.4 with NaOH).

NPY Y2 receptor = molecular target: T2, NPY Y2 receptor (Homo sapiens, UniProt P49146); assay: Receptor binding assay, displacement of [125I]PYY from SK-N-BE2 cells
T2 construct: Functional Y2 receptors have been identified on the cell line SK-N-BE2; endogenous in cells; host or cells: SK-N-BE(2) human neuroblastoma cells (intact, plated cells)
T2 sequence (P49146 1-381): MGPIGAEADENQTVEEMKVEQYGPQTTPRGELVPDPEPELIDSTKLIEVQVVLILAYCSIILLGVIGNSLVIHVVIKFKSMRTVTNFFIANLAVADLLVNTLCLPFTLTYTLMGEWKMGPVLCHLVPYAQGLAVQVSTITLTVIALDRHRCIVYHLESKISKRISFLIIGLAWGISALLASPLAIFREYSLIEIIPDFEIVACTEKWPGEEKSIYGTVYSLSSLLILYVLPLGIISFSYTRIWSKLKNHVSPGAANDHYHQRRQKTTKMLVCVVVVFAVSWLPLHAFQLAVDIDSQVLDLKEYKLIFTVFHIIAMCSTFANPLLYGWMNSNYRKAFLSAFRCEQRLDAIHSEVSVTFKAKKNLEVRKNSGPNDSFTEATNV
Protocol: as §1, §2

Ki (NPY Y1 receptor): 32 nM | Ki (NPY Y2 receptor): > 1000 nM
SMILES: CC[C@H](C)[C@H](NC(=O)[C@H](Cc1ccc(O)cc1)NC(=O)[C@H](Cc1c[nH]cn1)NC(=O)[C@H](CCCNC(=N)N)NC(=O)[C@H](CC(C)C)NC(=O)[C@H](C)NC(=O)[C@H](CO)NC(=O)[C@@H]1CSSC[C@H](NC(=O)[C@H](CC(=O)O)NC(=O)[C@@H]2CCCN2C(=O)[C@H](CCCCN)NC(=O)[C@H](CO)NC(=O)[C@@H]2CCCN2C(=O)[C@@H](N)Cc2ccc(O)cc2)C(=O)N2CCC[C@H]2C(=O)NCC(=O)N1)C(=O)N[C@@H](CC(N)=O)C(=O)N[C@@H](CC(C)C)C(=O)N[C@H](C(=O)N[C@H](C(=O)N[C@@H](CCCNC(=N)N)C(=O)N1CCC[C@H]1C(=O)N[C@@H](CCCNC(=N)N)C(=O)N[C@@H](Cc1ccc(O)cc1)C(N)=O)[C@@H](C)O)[C@@H](C)CC [SEQ ID NO:8] (H-YPSKPDCPGCSALRHYINLITRPRY-NH2; disulfide 7-10)
